The source of these data is article PMC9050161 (RSC Advances, 2020).

Data set [1] can be described thus: Chemical inhibition assay, glucuronidation of PI-103 in pooled HLM. It is filed as in vitro ADME, human.
A short description of data set [2]: Chemical inhibition assay, phase I metabolism of PI-103 in pooled HLM. The class given is in vitro ADME, human. The following applies: inhibitor 0.1 μM (CYP1A2 inhibitor).

As to `C[C@]12CC[C@@H](O)C[C@@H]1CC[C@@H]1[C@@H]2CC[C@]2(C)C(=O)CC[C@@H]12` [androsterone], the “activity of PI-103 glucuronidation in HLM” value in data set [1] (inhibitor 10 μM) is listed as 69.36 % of the control values.

`Cc1cn(-c2cc(NC(=O)c3ccc(C)c(Nc4nccc(-c5cccnc5)n4)c3)cc(C(F)(F)F)c2)cn1` [nilotinib]: the “activity of PI-103 glucuronidation in HLM” value in data set [1] (inhibitor 10 μM) was 82.37 % of the control values.

For the compound `C[C@H](CCC(=O)O)[C@H]1CC[C@H]2[C@@H]3[C@H](O)C[C@@H]4C[C@H](O)CC[C@]4(C)[C@H]3CC[C@]12C` [CDCA], the “activity of PI-103 glucuronidation in HLM” value in data set [1] (inhibitor 20 μM) is listed as “no changes”.

In the case of `CN(C)CCC=C1c2ccccc2CCc2ccccc21` [amitriptyline], the “activity of PI-103 glucuronidation in HLM” value in data set [1] (inhibitor 10 μM) is recorded as “no changes”.

For `O=c1cc(-c2ccccc2)oc2c1ccc1ccccc12` [α-naphthoflavone], in data set [2], the “remaining activity of PI-103 phase I metabolism in HLM” value was 53.37 % of the control values.
